Experimental data reported in ChEMBL document CHEMBL1133772, “In vitro and in vivo evaluation of dihydropyrimidinone C-5 amides as potent and selective alpha(1A) receptor antagonists for the treatment of benign prostatic hyperplasia” (J Med Chem, 2000).

tested on: not listed separately; assay: The compound was evaluated for the bioavailability when dosed 0.5 mg/kg intravenously and 1 mg/kg perorally in dog.; type: ADME, organism-based, Canis lupus familiaris; conditions: in vivo, po

Row | SMILES | bioavailability [%]
1 | COCC1=C(C(=O)NCCCN2CCC(c3ccc(F)cc3)CC2)[C@@H](c2ccc(F)c(F)c2)NC(=O)N1 | 40

tested on: not listed separately; assay: Bioavailability in rat; type: ADME, organism-based; conditions: in vivo

Row | SMILES | bioavailability [%]
2 | CC1=C(C(=O)NCCCN2CCC(c3ccccc3C#N)CC2)[C@@H](c2ccc(F)c(F)c2)NC(=O)N1 | 0
3 | CN1C=C(C(=O)NCCCN2CCC(C#N)(c3ccc(F)cc3)CC2)[C@H](c2ccc(F)c(F)c2)NC1=O | 8
4 | CC1=C(C(=O)NCCCN2CCC(c3ccc(F)cc3C#N)CC2)[C@@H](c2ccc(F)c(F)c2)NC(=O)N1C | 15
5 | CC1=C(C(=O)NCCCN2CCC(c3ccc(F)cc3)CC2)[C@@H](c2ccc(F)c(F)c2)N(C)C(=O)N1C | 17
6 | CC1=C(C(=O)NCCCN2CCC(c3ccc(F)cc3)CC2)[C@@H](c2ccc(F)c(F)c2)NC(=O)N1C | < 6
7 | COCC1=C(C(=O)NCCCN2CCC(c3ccc(F)cc3)CC2)[C@@H](c2ccc(F)c(F)c2)NC(=O)N1 | 26

tested on: not listed separately; assay: Bioavailability in dog (dose 0.5 mg/kg i.v. and 1 mg/kg p.o.); type: ADME, organism-based, Canis lupus familiaris; conditions: in vivo, po

Row | SMILES | bioavailability [%]
8 | CC1=C(C(=O)NCCCN2CCC(c3ccc(F)cc3C#N)CC2)[C@@H](c2ccc(F)c(F)c2)NC(=O)N1C | 27

tested on: not listed separately; assay: The compound was evaluated for plasma half-life from intravenous dose in dog.; type: ADME, organism-based, Canis lupus familiaris; conditions: not given

Row | SMILES | half-life [h]
9 | COCC1=C(C(=O)NCCCN2CCC(c3ccc(F)cc3)CC2)[C@@H](c2ccc(F)c(F)c2)NC(=O)N1 | 7.77

tested on: not listed separately; assay: Plasma half-life from intravenous dose in dog.; type: ADME, organism-based, Canis lupus familiaris; conditions: not given

Row | SMILES | half-life [h]
10 | CC1=C(C(=O)NCCCN2CCC(c3ccc(F)cc3C#N)CC2)[C@@H](c2ccc(F)c(F)c2)NC(=O)N1C | 2.13

target: T1, Alpha-1D adrenergic receptor (Homo sapiens, UniProt P25100); assay: Evaluated for the ability to displace [125I]- HEAT from human cloned Alpha-1D adrenergic receptor stably expressed in HEK cells.; type: cell-based, HEK293; conditions: not given
T1 sequence (P25100 whole entry): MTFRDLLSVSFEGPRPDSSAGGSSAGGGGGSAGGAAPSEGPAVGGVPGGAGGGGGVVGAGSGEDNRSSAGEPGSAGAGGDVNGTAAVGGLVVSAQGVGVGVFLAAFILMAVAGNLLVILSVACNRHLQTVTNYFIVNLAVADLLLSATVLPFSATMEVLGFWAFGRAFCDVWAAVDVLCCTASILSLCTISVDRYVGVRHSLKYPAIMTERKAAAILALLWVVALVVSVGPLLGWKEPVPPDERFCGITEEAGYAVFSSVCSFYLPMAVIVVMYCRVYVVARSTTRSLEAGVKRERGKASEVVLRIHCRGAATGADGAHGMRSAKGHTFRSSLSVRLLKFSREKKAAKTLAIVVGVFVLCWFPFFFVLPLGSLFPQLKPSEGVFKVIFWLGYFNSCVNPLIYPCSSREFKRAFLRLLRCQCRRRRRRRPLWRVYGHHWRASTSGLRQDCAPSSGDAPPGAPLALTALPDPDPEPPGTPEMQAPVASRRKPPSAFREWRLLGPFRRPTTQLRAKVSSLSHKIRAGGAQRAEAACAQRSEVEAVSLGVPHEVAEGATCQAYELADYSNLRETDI

Row | SMILES | Ki [nM]
11 | CC1=C(C(=O)NCCCN2CCC(c3ccccc3C#N)CC2)[C@@H](c2ccc(F)c(F)c2)NC(=O)N1 | 168
12 | CC1=C(C(=O)NCCCN2CCC(c3ccc(F)cc3C#N)CC2)[C@@H](c2ccc(F)c(F)c2)NC(=O)N1C | 340
13 | COCC1=C(C(=O)NCCCN2CCC(c3ccc(F)cc3)CC2)[C@@H](c2ccc(F)c(F)c2)NC(=O)N1 | 260

target: T1, Alpha-1D adrenergic receptor; assay: Ability to displace [125I]- HEAT from human cloned Alpha-1D adrenergic receptor stably expressed in HEK cells.; type: cell-based, HEK293; conditions: not given

Row | SMILES | Ki [nM]
14 | CN1C=C(C(=O)NCCCN2CCC(C#N)(c3ccc(F)cc3)CC2)[C@H](c2ccc(F)c(F)c2)NC1=O | 710
15 | CC1=C(C(=O)NCCCN2CCC(c3ccc(F)cc3)CC2)[C@@H](c2ccc(F)c(F)c2)N(C)C(=O)N1C | 200
16 | CC1=C(C(=O)NCCCN2CCC(c3ccc(F)cc3)CC2)[C@@H](c2ccc(F)c(F)c2)NC(=O)N1C | 590

target: T2, Alpha-1A adrenergic receptor (Homo sapiens, UniProt P35348); assay: Evaluated for the ability to displace [125I]- HEAT from human cloned Alpha-1A adrenergic receptor stably expressed in CHO cells.; type: cell-based; conditions: not given
T2 sequence (P35348 whole entry): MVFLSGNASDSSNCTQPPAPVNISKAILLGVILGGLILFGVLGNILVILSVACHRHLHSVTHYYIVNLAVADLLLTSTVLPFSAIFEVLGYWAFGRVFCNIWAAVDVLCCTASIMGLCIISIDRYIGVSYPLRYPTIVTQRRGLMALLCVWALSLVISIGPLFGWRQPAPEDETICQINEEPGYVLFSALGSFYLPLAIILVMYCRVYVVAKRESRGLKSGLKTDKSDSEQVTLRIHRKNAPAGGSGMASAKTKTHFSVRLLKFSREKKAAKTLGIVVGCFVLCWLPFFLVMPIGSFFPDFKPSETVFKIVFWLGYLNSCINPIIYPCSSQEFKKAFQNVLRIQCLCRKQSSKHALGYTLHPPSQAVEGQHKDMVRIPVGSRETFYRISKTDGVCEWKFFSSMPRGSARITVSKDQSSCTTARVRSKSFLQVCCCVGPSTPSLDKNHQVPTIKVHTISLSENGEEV

Row | SMILES | Ki [nM]
17 | CC1=C(C(=O)NCCCN2CCC(c3ccccc3C#N)CC2)[C@@H](c2ccc(F)c(F)c2)NC(=O)N1 | 0.25
18 | CC1=C(C(=O)NCCCN2CCC(c3ccc(F)cc3C#N)CC2)[C@@H](c2ccc(F)c(F)c2)NC(=O)N1C | 0.12

target: T3, Alpha-1B adrenergic receptor (Homo sapiens, UniProt P35368); assay: Ability to displace [125I]- HEAT from human cloned Alpha-1B adrenergic receptor stably expressed in LM cells.; type: cell-based; conditions: not given
T3 sequence (P35368 whole entry): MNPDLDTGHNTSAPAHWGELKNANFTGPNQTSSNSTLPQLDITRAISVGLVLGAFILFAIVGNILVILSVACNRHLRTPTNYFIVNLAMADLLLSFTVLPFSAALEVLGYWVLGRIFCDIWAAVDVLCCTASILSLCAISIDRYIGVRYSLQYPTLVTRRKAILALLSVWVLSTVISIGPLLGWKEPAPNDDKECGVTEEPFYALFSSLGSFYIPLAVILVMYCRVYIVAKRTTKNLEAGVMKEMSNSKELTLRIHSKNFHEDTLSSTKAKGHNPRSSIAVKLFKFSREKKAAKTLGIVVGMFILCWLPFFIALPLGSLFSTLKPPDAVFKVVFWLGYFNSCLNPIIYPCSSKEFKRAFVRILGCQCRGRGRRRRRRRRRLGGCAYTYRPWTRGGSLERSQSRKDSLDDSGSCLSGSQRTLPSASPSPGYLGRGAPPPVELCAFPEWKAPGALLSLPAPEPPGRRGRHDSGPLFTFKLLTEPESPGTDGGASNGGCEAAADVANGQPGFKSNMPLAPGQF

Row | SMILES | Ki [nM]
19 | CN1C=C(C(=O)NCCCN2CCC(C#N)(c3ccc(F)cc3)CC2)[C@H](c2ccc(F)c(F)c2)NC1=O | 320
20 | CC1=C(C(=O)NCCCN2CCC(c3ccc(F)cc3)CC2)[C@@H](c2ccc(F)c(F)c2)N(C)C(=O)N1C | 20
21 | CC1=C(C(=O)NCCCN2CCC(c3ccc(F)cc3)CC2)[C@@H](c2ccc(F)c(F)c2)NC(=O)N1C | 120

target: T3, Alpha-1B adrenergic receptor; assay: Evaluated for the ability to displace [125I]- HEAT from human cloned Alpha-1B adrenergic receptor stably expressed in LM cells.; type: cell-based; conditions: not given

Row | SMILES | Ki [nM]
22 | CC1=C(C(=O)NCCCN2CCC(c3ccccc3C#N)CC2)[C@@H](c2ccc(F)c(F)c2)NC(=O)N1 | 158
23 | CC1=C(C(=O)NCCCN2CCC(c3ccc(F)cc3C#N)CC2)[C@@H](c2ccc(F)c(F)c2)NC(=O)N1C | 130
24 | COCC1=C(C(=O)NCCCN2CCC(c3ccc(F)cc3)CC2)[C@@H](c2ccc(F)c(F)c2)NC(=O)N1 | 41

target: T2, Alpha-1A adrenergic receptor; assay: Ability to displace [125I]- HEAT from human cloned Alpha-1A adrenergic receptor stably expressed in CHO cells.; type: cell-based; conditions: not given

Row | SMILES | Ki [nM]
25 | CN1C=C(C(=O)NCCCN2CCC(C#N)(c3ccc(F)cc3)CC2)[C@H](c2ccc(F)c(F)c2)NC1=O | 2.3
26 | CC1=C(C(=O)NCCCN2CCC(c3ccc(F)cc3)CC2)[C@@H](c2ccc(F)c(F)c2)N(C)C(=O)N1C | 0.18
27 | CC1=C(C(=O)NCCCN2CCC(c3ccc(F)cc3)CC2)[C@@H](c2ccc(F)c(F)c2)NC(=O)N1C | 0.18
28 | COCC1=C(C(=O)NCCCN2CCC(c3ccc(F)cc3)CC2)[C@@H](c2ccc(F)c(F)c2)NC(=O)N1 | 0.24

species: Canis familiaris; assay: Compound was evaluated for the inhibition of phenylephrine-induced contraction in dog.; type: functional, Canis lupus familiaris; conditions: not given

Row | SMILES | AD50 [µg/kg]
29 | CC1=C(C(=O)NCCCN2CCC(c3ccc(F)cc3C#N)CC2)[C@@H](c2ccc(F)c(F)c2)NC(=O)N1C | 10
30 | COCC1=C(C(=O)NCCCN2CCC(c3ccc(F)cc3)CC2)[C@@H](c2ccc(F)c(F)c2)NC(=O)N1 | 25

species: Canis familiaris; assay: The compound was evaluated for the inhibition of phenylephrine-induced contraction in dog.; type: functional, Canis lupus familiaris; conditions: not given

Row | SMILES | IUP AD50 [µg/kg]
31 | CC1=C(C(=O)NCCCN2CCC(c3ccccc3C#N)CC2)[C@@H](c2ccc(F)c(F)c2)NC(=O)N1 | 6

species: Canis familiaris; assay: Dose effecting a 20 mmHg change in diastolic blood pressure in dog.; type: functional, Canis lupus familiaris, Artery; conditions: not given

Row | SMILES | DBP-20 [µg/kg]
32 | CC1=C(C(=O)NCCCN2CCC(c3ccccc3C#N)CC2)[C@@H](c2ccc(F)c(F)c2)NC(=O)N1 | >300
33 | CC1=C(C(=O)NCCCN2CCC(c3ccc(F)cc3C#N)CC2)[C@@H](c2ccc(F)c(F)c2)NC(=O)N1C | >300
34 | COCC1=C(C(=O)NCCCN2CCC(c3ccc(F)cc3)CC2)[C@@H](c2ccc(F)c(F)c2)NC(=O)N1 | >300

species: Rattus norvegicus; assay: Evaluated for the inhibition of A61603-induced prostate contraction in rat; type: functional, Prostate gland; conditions: not given

Row | SMILES | AD50 [µg/kg]
35 | CC1=C(C(=O)NCCCN2CCC(c3ccccc3C#N)CC2)[C@@H](c2ccc(F)c(F)c2)NC(=O)N1 | 3
36 | CN1C=C(C(=O)NCCCN2CCC(C#N)(c3ccc(F)cc3)CC2)[C@H](c2ccc(F)c(F)c2)NC1=O | 145
37 | CC1=C(C(=O)NCCCN2CCC(c3ccc(F)cc3C#N)CC2)[C@@H](c2ccc(F)c(F)c2)NC(=O)N1C | 7
38 | CC1=C(C(=O)NCCCN2CCC(c3ccc(F)cc3)CC2)[C@@H](c2ccc(F)c(F)c2)N(C)C(=O)N1C | 9
39 | CC1=C(C(=O)NCCCN2CCC(c3ccc(F)cc3)CC2)[C@@H](c2ccc(F)c(F)c2)NC(=O)N1C | 20
40 | COCC1=C(C(=O)NCCCN2CCC(c3ccc(F)cc3)CC2)[C@@H](c2ccc(F)c(F)c2)NC(=O)N1 | 4.6

species: Rattus norvegicus; assay: Duration of action with repeated challenges of A61603 agonist in rat; type: functional; conditions: not given

Row | SMILES | Duration [h]
41 | CC1=C(C(=O)NCCCN2CCC(c3ccccc3C#N)CC2)[C@@H](c2ccc(F)c(F)c2)NC(=O)N1 | <0.5
42 | CC1=C(C(=O)NCCCN2CCC(c3ccc(F)cc3C#N)CC2)[C@@H](c2ccc(F)c(F)c2)NC(=O)N1C | 2.5
43 | CC1=C(C(=O)NCCCN2CCC(c3ccc(F)cc3)CC2)[C@@H](c2ccc(F)c(F)c2)N(C)C(=O)N1C | 1
44 | CC1=C(C(=O)NCCCN2CCC(c3ccc(F)cc3)CC2)[C@@H](c2ccc(F)c(F)c2)NC(=O)N1C | 2.5
45 | COCC1=C(C(=O)NCCCN2CCC(c3ccc(F)cc3)CC2)[C@@H](c2ccc(F)c(F)c2)NC(=O)N1 | 1

tested on: not listed separately; assay: t1/2 in rat; type: ADME, organism-based; conditions: in vivo

Row | SMILES | half-life [h]
46 | CC1=C(C(=O)NCCCN2CCC(c3ccccc3C#N)CC2)[C@@H](c2ccc(F)c(F)c2)NC(=O)N1 | 2.7
47 | CN1C=C(C(=O)NCCCN2CCC(C#N)(c3ccc(F)cc3)CC2)[C@H](c2ccc(F)c(F)c2)NC1=O | 1.2
48 | CC1=C(C(=O)NCCCN2CCC(c3ccc(F)cc3C#N)CC2)[C@@H](c2ccc(F)c(F)c2)NC(=O)N1C | 2.2
49 | CC1=C(C(=O)NCCCN2CCC(c3ccc(F)cc3)CC2)[C@@H](c2ccc(F)c(F)c2)N(C)C(=O)N1C | 2.3
50 | CC1=C(C(=O)NCCCN2CCC(c3ccc(F)cc3)CC2)[C@@H](c2ccc(F)c(F)c2)NC(=O)N1C | 1.2
51 | COCC1=C(C(=O)NCCCN2CCC(c3ccc(F)cc3)CC2)[C@@H](c2ccc(F)c(F)c2)NC(=O)N1 | 6.47
